Assay results as given in patent US20050227220A1, “Compositions and Methods for Evaluating and Designing Nuclear Receptor Ligands that Modulate Co-Regulator Affinity” (priority 2002, published 2005).
Entries after “also recorded” stand apart in the source; their conditions may differ.

Columns and labels:
PPARα LBD = molecular target: T1, PPARα LBD (Homo sapiens, UniProt Q07869); assay: FRET assay: ligand effect on CBP fragment / NCoR ID-C binding to PPAR LBD; type: biochemical
T1 construct: made in house; host or cells: bacterial BL21-DE3, vector pRSETA
T1 sequence (Q07869 192-468): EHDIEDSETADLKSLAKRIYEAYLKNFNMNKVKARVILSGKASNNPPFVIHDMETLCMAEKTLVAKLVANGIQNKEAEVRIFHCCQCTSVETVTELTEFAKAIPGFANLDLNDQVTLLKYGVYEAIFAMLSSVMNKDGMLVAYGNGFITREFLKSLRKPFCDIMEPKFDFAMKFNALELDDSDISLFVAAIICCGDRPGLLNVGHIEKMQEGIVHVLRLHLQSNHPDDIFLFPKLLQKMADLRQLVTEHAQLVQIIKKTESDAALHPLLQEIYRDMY
Description: (§1) The experimentally determined α value is the ratio of cofactor affinities in the presence and absence of a saturating concentration of ligand. This analysis permits a direct comparison of the effects of compounds, independent of cofactor concentration and differences in coregulator affinity for the individual receptors. […] 98(9): p.
(§2) The effects of the coregulator environment on the apparent affinities and selectivities of various ligands were than examined. Experimentally determined pKs and the α values derived from the FRET assay were used to calculate the apparent affinity of the ligand for the receptor/cofactor complex (i.e. K/α).
(§3) FIG. 5 illustrates the effect of ligands on coactivator and corepressor binding to PPAR subtypes determined by FRET.

PPARγ LBD = molecular target: T2, PPARγ LBD (Homo sapiens, UniProt P37231); assay: as above; type: biochemical; settings: 10 nM PPAR LBD
T2 construct: made in house; host or cells: bacterial BL21-DE3, vector pRSETA
Description: as §1, §2, §3

PPARδ LBD = molecular target: T3, PPARδ LBD (Homo sapiens, UniProt Q03181); assay: as above; type: biochemical
T3 construct: made in house; host or cells: bacterial BL21-DE3, vector pRSETA
T3 sequence (Q03181 139-441): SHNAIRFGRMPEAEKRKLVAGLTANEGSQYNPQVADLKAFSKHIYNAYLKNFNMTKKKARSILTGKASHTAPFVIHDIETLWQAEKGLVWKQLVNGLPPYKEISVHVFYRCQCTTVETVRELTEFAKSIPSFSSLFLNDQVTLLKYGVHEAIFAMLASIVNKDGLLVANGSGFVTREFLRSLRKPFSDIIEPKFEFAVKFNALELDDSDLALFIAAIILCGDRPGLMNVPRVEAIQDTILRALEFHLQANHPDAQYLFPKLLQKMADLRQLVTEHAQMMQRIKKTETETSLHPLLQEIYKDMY
Description: as §1, §2, §3

full length human PPARα = molecular target: T4, full length human PPARα (Homo sapiens, UniProt Q07869); assay: Mammalian two-hybrid assay (CV-1 cells); type: cell-based; settings: VP16-PPARα, GAL4-NCoR (2239-2300), result in words
T4 construct: expressed in transfected cells; host or cells: CV-1 cells, vector pVP16 (Clonetech)
T4 sequence (Q07869 1-468): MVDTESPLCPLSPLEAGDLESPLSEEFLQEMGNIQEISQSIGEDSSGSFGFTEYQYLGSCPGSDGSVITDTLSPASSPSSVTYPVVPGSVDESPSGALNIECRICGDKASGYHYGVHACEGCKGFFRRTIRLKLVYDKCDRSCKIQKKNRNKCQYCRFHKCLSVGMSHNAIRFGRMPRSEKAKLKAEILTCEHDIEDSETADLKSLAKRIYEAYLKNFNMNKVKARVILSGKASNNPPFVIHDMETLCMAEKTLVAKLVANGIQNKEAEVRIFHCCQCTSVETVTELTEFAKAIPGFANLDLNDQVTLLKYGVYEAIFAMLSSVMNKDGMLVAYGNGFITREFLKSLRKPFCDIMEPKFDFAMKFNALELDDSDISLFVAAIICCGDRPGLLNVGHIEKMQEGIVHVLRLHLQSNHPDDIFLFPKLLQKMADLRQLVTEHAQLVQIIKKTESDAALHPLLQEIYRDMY
Description: (§4) Mammalian two-hybrid assays were used to examine the ability of the tyrosine-based class of PPAR ligands to promote association or dissociation of the co-activator CBP and the corepressor NCoR in the context of a cellular environment. The assays for the three PPAR subtypes used full length human PPARα, PPARγ2 or PPARδ fused to the activation domain of VP16 and previously identified interaction domains of CBP and NCoR fused to the DNA binding domain of GAL4.
(§5) Expression plasmids for the VP16-human PPAR constructs were prepared by inserting amplified cDNAs encoding full length PPARα, PPARγ2 and PPARδ fused to amino acids 410-490 of the VP16 viral activation domain, into the expression vector pVP16 (Clonetech). […] The reporter plasmid was (UAS)5-tk-SPAP, and the internal control plasmid for all transfections was β-galactosidase expression vector (pCH110, Amersham).
(§6) CV-1 cells were maintained in culture in DME high glucose medium supplemented with 10% FBS and 2 mM glutamine in a humidified incubator (5% CO2 in air) at 37° C. Cells were harvested 72 hours prior to experimental use and placed in phenol red free D-MEM/F-12 medium with 15 mM HEPES supplemented with 10% charcoal/dextran-treated FBS (HyClone, Logan, Utah). The cells were harvested and seeded at 2.0×10^4 cell per well in a 96-well plate the day prior to transfection. Cells were transfected for 16 hr using Lipofectamine (Life Technologies, Inc., Rockville, Md.) essentially according to the manufacturer's instructions. The total amount of DNA transfected into each well was 80 ng. Transfection mixtures contained 8 ng VP16-PPAR plasmid, 8 ng SPAP reporter, 25 ng of pCH110(β-galactosidase) control plasmid, 35 ng of pBluescript II KS+ (Clonetech) and 4 ng of either coactivator or corepressor plasmid. Transfection quantities for full length PPAR and cofactor plasmids were optimized to generate a signal that was half of the maximal activation. These conditions would allow for dissociation or association to be experimentally determined for each ligand evaluated. Stock solutions of drugs were prepated in DMSO and dilutions were made in phenol red-free D-MEM/F-12 with 15 mM HEPES supplemented with 10% charcoal stripped, delipidated, heat inactivated (62° C. for 35 min) bovine calf serum (Sigma, St. Louis, Mo.) such that the final concentration of DMSO was 0.1%. Transfection mixtures were aspirated and 100 μl, of medium containing drug was added to each well.

full length human PPARδ = molecular target: T5, full length human PPARδ (Homo sapiens, UniProt Q03181); assay: Mammalian two-hybrid assay (CV-1 cells); type: cell-based; settings: VP16-PPARδ, GAL4-NCoR (2239-2300), result in words
T5 construct: expressed in transfected cells; host or cells: CV-1 cells, vector pVP16 (Clonetech)
Description: as §4, §5, §6

PPARδ LBD / RXRα LBD = molecular target: T6, PPARδ LBD / RXRα LBD (Homo sapiens, UniProt Q03181); assay: FRET assay: ligand effect on RXRα LBD binding to PPAR LBD; settings: 10 nM PPAR LBD, 4 concentrations of RXR
T6 sequence (Q03181 139-441): T3 sequence (Q03181 139-441)
T6 sequence (P19793 225-462 partner limits assumed): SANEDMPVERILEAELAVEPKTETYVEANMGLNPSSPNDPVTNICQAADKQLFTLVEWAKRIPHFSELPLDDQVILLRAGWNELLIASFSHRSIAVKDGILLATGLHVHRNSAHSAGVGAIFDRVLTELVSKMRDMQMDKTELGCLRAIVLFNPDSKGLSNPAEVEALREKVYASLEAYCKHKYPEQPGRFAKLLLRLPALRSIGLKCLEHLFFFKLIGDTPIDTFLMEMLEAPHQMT

[1] = molecular target: PPARα ligand binding domain (Homo sapiens, UniProt Q07869); assay: Surface plasmon resonance: effect of compounds on co-repressor peptide binding to PPAR LBD; settings: SPR equilibrium response, immobilized biotinylated peptides
Description: (§7) A surface plasmon resonance assay was used to further characterize the effects of PPAR ligands binding of peptides derived from the co-repressors NCOR and SMRT to the PPAR subtypes. Each peptide was biotinylated and immobilized on separate flow cells of a BlAcore sensor chip. Using a BIAcore instrument, fixed concentrations of each PPAR subtype ligand binding domain were incubated with varied concentrations of test compounds and injected over the peptide-derivatized sensor chip to determine the equilibrium binding response of the receptors for the immobilized peptides.
(§8) The binding of co-activator and co-repressor peptides with PPAR ligand binding domains and the effects of compounds on these interactions were determined by surface plasmon resonance using the Biacore 3000. Approximately 300 resonance units (RU) of biotinylated peptides were immobilized to individual flow cells of a streptavidin chip. All experiments were conducted at 25° C. at a flow rate of 10 μl/minute with a buffer containing 10 mM HEPES, pH 7.4, containing 0.15 M NaCl, 3 mM EDTA and 0.005% polysorbate-20. […] Binding was determined by measuring the equilibrium binding response 10 seconds before the end of the association phase minus the response from a flow cell with no immobilized peptide.
(§9) Each point is the average of three injections.

[2] = molecular target: PPARγ ligand binding domain (Homo sapiens, UniProt P37231); assay: as above; settings: SPR equilibrium response, immobilized biotinylated peptides
Description: as §7, §8, §9

[3] = α = ratio of cofactor affinities in presence and absence of saturating ligand

T2 sequence (P37231 234-505): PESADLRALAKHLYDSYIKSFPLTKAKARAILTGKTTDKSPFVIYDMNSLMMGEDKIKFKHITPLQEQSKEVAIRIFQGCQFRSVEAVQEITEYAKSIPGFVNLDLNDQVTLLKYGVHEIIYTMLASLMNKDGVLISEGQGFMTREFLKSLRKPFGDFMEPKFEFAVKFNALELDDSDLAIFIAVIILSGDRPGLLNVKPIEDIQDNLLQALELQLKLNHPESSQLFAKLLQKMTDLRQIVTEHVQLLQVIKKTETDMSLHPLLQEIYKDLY
T5 sequence (Q03181 whole entry, the tested form may be a part): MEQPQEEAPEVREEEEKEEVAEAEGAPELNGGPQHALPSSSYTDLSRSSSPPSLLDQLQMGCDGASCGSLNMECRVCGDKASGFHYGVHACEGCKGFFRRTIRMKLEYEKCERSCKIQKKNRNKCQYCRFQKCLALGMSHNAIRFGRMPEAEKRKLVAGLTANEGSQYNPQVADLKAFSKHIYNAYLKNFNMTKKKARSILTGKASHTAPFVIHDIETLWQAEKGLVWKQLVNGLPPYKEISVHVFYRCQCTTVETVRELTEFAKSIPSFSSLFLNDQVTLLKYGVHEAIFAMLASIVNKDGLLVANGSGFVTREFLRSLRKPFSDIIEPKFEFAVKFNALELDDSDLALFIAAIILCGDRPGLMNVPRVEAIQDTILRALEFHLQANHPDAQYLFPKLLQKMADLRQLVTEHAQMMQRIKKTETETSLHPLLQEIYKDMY
PPARγ ligand binding domain, sequence (P37231 234-505): as the sequence (P37231 234-505) above

effect on apparent affinity of PPARα for the co-activator fragment from CBP (PPARα LBD; 10 nM PPAR LBD, CBP (57-454)): increased the apparent affinity
alpha value for the association of PPARα and NCoR (PPARα LBD; [3]): 0.16
effect on apparent affinity of PPARγ for the co-activator fragment from CBP (PPARγ LBD; CBP (57-454)): increased the apparent affinity
effect on affinity of PPARγ for the co-repressor peptide (PPARγ LBD; NCoR ID-C): decrease the affinity
effect on apparent affinity of PPARδ for the co-activator fragment from CBP (PPARδ LBD; 10 nM PPAR LBD, CBP (57-454)): increased the apparent affinity
log α (NCoR association with PPARδ) (PPARδ LBD; [3]): 0.14
effect on PPARδ interaction with NCoR (full length human PPARδ): no significant association
promotion of association of PPARδ with RXR (PPARδ LBD / RXRα LBD): most effective
effect on binding of PPARα LBD to the NCOR and SMRT co-repressor peptides [1]: increase the binding
effect on binding of PPARγ LBD to the NCOR- and SMRT-derived co-repressor peptides [2]: decreased the binding
SMILES: COC(=O)c1ccccc1N[C@@H](Cc1ccc(OCCc2nc(-c3ccccc3)oc2C)cc1)C(=O)O [GW7845]
effect on affinity of PPARα for the co-repressor peptide (PPARα LBD; 10 nM PPAR LBD, NCoR ID-C): enhanced the binding; also recorded: slightly increase the affinity
effect on PPARα interaction with NCoR (full length human PPARα): neither GW1929 nor GW7845 were able to promote association with NCoR
